The values that follow come from US10766895B2 (Zhejiang Huahai Pharmaceutical Co., Ltd., priority 2015, dated 2020).

Data set [1] in a line: Comparative Example 1: heating palbociclib free base in n-butanol and anisole (method of WO2014128588A1). In kind it is physicochemical. The note with it: n-butanol (16 ml/g) and anisole (24 ml/g), heated to 95-100° C. From the text: The seed crystal of crystal form A was required to be added into the reaction system to obtain a crystal form A of palbociclib free base.
The conditions of data set [2]: all of organic solvents; cited from earlier work.

Take `CC(=O)c1c(C)c2cnc(Nc3ccc(N4CCNCC4)cn3)nc2n(C2CCCC2)c1=O` [palbociclib free base, 6-acetyl-8-cyclopentyl-5-methyl-2-[[5-(piperazine-1-yl)pyridine-2-yl]amino]-8H-pyrido[2,3-D]pyrimidine-7-ketone]: the Solubility on heating entry in data set [1] was “remained insoluble”. Moreover, in data set [2], the “Solubility in organic solvents” value is reported as “very poor solubility”.
